Test results reported in patent publication US12037344B2, “NLRP3 modulators” (INNATE TUMOR IMMUNITY, INC., priority 2018, dated 2024).
Where a name gives a salt, the structure may show the parent alone. Read-outs that look alike come from different tables or passages of the source.

Experiments:
[1] = biological target: T1, TLR7 (Homo sapiens, UniProt Q9NYK1); test: In vitro human TLR7 binding reporter assay (HEK-Blue, NF-kB/AP1-inducible SEAP); assay type: cell-based; conditions: read-out: TLR7 Agonist EC50
T1 construct: human HEK-Blue cells co-expressing a TLR7 or TLR8 gene
T1 sequence (Q9NYK1 27-1049): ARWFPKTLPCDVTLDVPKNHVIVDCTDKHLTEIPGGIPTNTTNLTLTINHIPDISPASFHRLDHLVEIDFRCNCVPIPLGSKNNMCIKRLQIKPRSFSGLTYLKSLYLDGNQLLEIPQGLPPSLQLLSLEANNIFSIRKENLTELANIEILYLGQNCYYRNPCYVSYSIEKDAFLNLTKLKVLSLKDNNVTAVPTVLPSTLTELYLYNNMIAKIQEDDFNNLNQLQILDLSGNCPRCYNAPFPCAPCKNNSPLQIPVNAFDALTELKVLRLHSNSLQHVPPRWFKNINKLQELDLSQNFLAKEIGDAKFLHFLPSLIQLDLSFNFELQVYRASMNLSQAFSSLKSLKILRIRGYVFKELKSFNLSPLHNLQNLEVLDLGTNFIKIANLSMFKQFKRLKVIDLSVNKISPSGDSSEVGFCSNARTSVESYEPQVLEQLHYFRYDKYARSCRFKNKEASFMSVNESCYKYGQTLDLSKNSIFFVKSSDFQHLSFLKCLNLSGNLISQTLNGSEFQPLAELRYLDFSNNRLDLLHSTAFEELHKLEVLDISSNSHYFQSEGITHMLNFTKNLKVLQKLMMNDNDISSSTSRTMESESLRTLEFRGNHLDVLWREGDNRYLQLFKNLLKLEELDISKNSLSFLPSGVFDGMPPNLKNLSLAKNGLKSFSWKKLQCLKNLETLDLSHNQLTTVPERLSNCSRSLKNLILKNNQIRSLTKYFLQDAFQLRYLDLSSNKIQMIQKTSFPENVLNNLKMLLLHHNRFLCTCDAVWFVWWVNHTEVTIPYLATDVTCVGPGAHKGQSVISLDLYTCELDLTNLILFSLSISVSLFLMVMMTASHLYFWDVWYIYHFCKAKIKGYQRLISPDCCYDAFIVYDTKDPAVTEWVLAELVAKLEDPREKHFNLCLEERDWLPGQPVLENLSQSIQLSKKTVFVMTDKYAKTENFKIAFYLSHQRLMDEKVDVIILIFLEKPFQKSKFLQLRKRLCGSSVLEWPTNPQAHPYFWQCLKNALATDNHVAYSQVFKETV
Procedure, shortened: (§1)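 EC50s come from NF-kB/AP1-driven SEAP secretion in HEK-Blue cells expressing TLR7 or TLR8, measured with Quanti-Blue after an 18 h compound incubation. Maximal response is defined by a 50 μM reference standard.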

[2] = biological target: T2, TLR8 (Homo sapiens, UniProt Q9NR97); test: In vitro human TLR8 binding reporter assay (HEK-Blue, NF-kB/AP1-inducible SEAP); assay type: cell-based; conditions: read-out: TLR8 Agonist EC50
T2 construct: human HEK-Blue cells co-expressing a TLR7 or TLR8 gene
T2 sequence (Q9NR97 27-1041): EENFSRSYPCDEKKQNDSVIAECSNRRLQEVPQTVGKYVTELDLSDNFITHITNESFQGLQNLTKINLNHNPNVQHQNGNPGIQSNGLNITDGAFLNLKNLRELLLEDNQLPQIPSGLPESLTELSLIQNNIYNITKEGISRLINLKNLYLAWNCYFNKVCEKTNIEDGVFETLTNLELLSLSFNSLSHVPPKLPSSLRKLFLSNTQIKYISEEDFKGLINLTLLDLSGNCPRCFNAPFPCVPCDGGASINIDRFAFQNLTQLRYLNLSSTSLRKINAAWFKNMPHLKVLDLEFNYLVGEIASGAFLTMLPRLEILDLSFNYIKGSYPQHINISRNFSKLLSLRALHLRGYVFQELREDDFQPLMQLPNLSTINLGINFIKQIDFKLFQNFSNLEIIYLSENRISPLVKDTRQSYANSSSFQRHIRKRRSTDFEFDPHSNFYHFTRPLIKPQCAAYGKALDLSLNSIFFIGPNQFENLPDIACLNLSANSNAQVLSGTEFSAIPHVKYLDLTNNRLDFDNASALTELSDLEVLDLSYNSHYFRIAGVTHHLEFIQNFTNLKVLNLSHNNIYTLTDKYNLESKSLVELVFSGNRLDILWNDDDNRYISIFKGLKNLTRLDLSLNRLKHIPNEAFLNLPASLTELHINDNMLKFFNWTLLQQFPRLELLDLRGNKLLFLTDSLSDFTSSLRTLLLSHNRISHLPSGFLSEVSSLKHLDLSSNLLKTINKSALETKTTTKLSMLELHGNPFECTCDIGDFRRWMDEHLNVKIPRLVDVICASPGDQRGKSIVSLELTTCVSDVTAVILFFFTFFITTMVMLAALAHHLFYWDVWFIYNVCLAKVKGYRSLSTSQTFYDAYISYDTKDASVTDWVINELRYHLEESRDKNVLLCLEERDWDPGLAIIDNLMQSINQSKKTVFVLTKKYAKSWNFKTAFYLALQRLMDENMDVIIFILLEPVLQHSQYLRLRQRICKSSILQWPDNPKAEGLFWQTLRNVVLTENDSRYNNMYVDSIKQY
Procedure, shortened: as §1

[3] = tested on: THP-1 cells; test: Measurement of IL-1β production, hTRF protocol (second alternative procedure), THP-1 cells; assay type: cell-based, human; conditions: Homo sapiens, THP-1, IL-1β production, read-out: NLRP3 hILIB EC50
Procedure, shortened: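 Compounds, dilution series starting at a final 10 μM, were incubated 2 hours at 37° C with PMA-differentiated THP-1 cells (50 ng/ml overnight; 50,000 cells/well, 2% FBS RPMI). Released IL-1β quantified in supernatant by hTRF kit with 1:40 antibody dilution, 4° C overnight, 665/615 nm ratio.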

SMILES | EC50 ([1]; activity range) | EC50 ([2]; activity range) | EC50 ([3]; human cells) | EC50 ([1]; activity range class) | EC50 ([2]; activity range class) | EC50 ([3]; human)
Nc1nc2cc(-c3ccn[nH]3)ccc2c2nn(CCCNS(=O)(=O)C3CC3)cc12 [Example 589] | > 100 µM | > 100 µM | 2.62 µM |  |  | 
Nc1nc2cc(-c3cc[nH]n3)ccc2c2nn(CC(O)CF)cc12 (single isomer, unassigned) [Example 376] |  |  |  | > 100 µM | > 100 µM | 0.4 µM
CS(=O)(=O)CCCn1cc2c(N)nc3cc(-c4cc[nH]n4)ccc3c2n1 [Example 211] |  |  |  | > 100 µM | > 100 µM | 0.63 µM
COC(=O)NCc1nc2c(N)nc3cc(-c4ccn[nH]4)ccc3c2s1 [Example 134, methyl N-[[4-amino-7-(1H-pyrazol-5-yl)-[1,3]thiazolo[4,5-c]quinolin-2-yl]methyl]carbamate] |  |  |  | 20 to 100 µM | > 100 µM | 0.37 µM
Nc1nc2cc(-n3cccn3)ccc2c2nn(C[C@@H](O)CO)cc12 [Example 389] |  |  |  | > 100 µM | > 100 µM | 0.91 µM
CC(Cn1cc2c(N)nc3cc(-c4ccn[nH]4)ccc3c2n1)C(=O)N(C)C (stereo not drawn) [Example 488, 3-(4-amino-7-(1H-pyrazol-5-yl)-2H-pyrazolo[4,3-c]quinolin-2-yl)-N,N,2-trimethylpropanamide.TFA] | > 100 µM | > 100 µM | 1.15 µM |  |  | 
Nc1nc2cc(-c3cc[nH]n3)ccc2c2cn(CCNC(=O)c3cnn4cccnc34)nc12 [Example 101] |  |  |  | > 100 µM | > 100 µM | 2.39 µM
Nc1nc2cc(-c3cc[nH]n3)ccc2c2[nH]c(CCNC(=O)c3cccc(O)n3)cc12 [Example 519] | > 100 µM | > 100 µM | 2.07 µM |  |  | 
CN1CCOC(Cn2ncc3c(N)nc4cc(-c5cc[nH]n5)ccc4c32)C1 (stereo not drawn) [Example 231] |  |  |  | > 100 µM | > 100 µM | 1.21 µM
CC(C)NCCn1cc2c(N)nc3cc(-c4ccn[nH]4)ccc3c2n1 [Example 275] |  |  |  | > 100 µM | > 100 µM | 1.73 µM
Nc1nc2cc(-c3cc[nH]n3)ccc2c2cn(CCNC(=O)c3ccon3)nc12 [Example 69] |  |  |  | > 100 µM | > 100 µM | 0.7 µM
CN1CCOC(C(=O)NCCn2cc3c(n2)c(N)nc2cc(-c4cc[nH]n4)ccc23)C1 (single isomer, unassigned) [Example 179] |  |  |  | > 100 µM | > 100 µM | 25.8 µM
Nc1nc2cc(-c3cc[nH]n3)ccc2c2cn(CCNC(=O)c3ncc(C(F)(F)F)cc3F)nc12 [Example 91] |  |  |  | > 100 µM | 20 to 100 µM | 1.17 µM
N#C[C@H]1CCN(C(=O)CCn2cc3c(N)nc4cc(-c5cc[nH]n5)ccc4c3n2)C1 [Example 516] | > 100 µM | > 100 µM | 9.67 µM |  |  | 
COCCn1nc2c(N)nc3cc(-c4ccn[nH]4)ccc3c2n1 [Example 162] |  |  |  | > 100 µM | > 100 µM | 1.22 µM
Nc1nc2cc(-c3cc[nH]n3)ccc2c2nn(C3CCCCC3O)cc12 (stereo not drawn) [Example 317] |  |  |  | > 100 µM | > 100 µM | 2.42 µM
Nc1nc2cc(-c3cc[nH]n3)ccc2c2nn([C@H]3CC[C@H](O)CC3)cc12 [Example 393] |  |  |  | > 100 µM | > 100 µM | 1.73 µM

SMILES | EC50 ([1]; activity range) | EC50 ([2]; activity range) | EC50 ([3]; human cells) | EC50 ([1]; activity range class) | EC50 ([2]; activity range class) | EC50 ([3]; human)
Nc1nc2cc(-c3cc[nH]n3)ccc2c2cn(CCCO)nc12 [Example 1, 3-[4-amino-7-(1H-pyrazol-3-yl)-2H-pyrazolo[3,4-c]quinolin-2-yl]propan-1-ol] |  |  |  | > 100 µM | > 100 µM | 0.45 µM
CNC(=O)C(C)(C)n1cc2c(N)nc3cc(-c4cc[nH]n4)ccc3c2n1 [Example 513] | > 100 µM | > 100 µM | 1.28 µM |  |  | 
COC1CCN(C(=O)CC(C)n2cc3c(N)nc4cc(-c5cc[nH]n5)ccc4c3n2)CC1 (stereo not drawn) [Example 623] | > 100 µM | > 100 µM | 17.3 µM |  |  | 
Nc1nc2cc(-c3ccn[nH]3)ccc2c2nn(CCNC3CCC3)cc12 [Example 280] |  |  |  | > 100 µM | > 100 µM | 1.72 µM
Cc1ccc(C(=O)NCCn2cc3c(n2)c(N)nc2cc(-c4cc[nH]n4)ccc23)cc1 [Example 41] |  |  |  | > 100 µM | > 100 µM | 0.8 µM
Nc1nc2cc(-c3cc[nH]n3)ccc2c2nn(CCNC(=O)c3csc(Cl)n3)cc12 [Example 151, N-{2-[4-amino-7-(1H-pyrazol-3-yl)-2H-pyrazolo[4,3-c]quinolin-2-yl]ethyl}-2-chloro-1,3-thiazole-4-carboxamide] |  |  |  | > 100 µM | > 100 µM | 0.06 µM
Nc1nc2cc(-c3cc[nH]n3)ccc2c2nn(C3COC3)cc12 [Example 241] |  |  |  | > 100 µM | > 100 µM | 0.46 µM
N#CCC1(Cn2cc3c(N)nc4cc(-c5cc[nH]n5)ccc4c3n2)CC1 [Example 466] | > 100 µM | > 100 µM | 0.61 µM |  |  | 
CC1(O)CCCC1n1cc2c(N)nc3cc(-c4cc[nH]n4)ccc3c2n1 (single isomer, unassigned) [Example 344] |  |  |  | > 100 µM | > 100 µM | 1.02 µM
Nc1nc2cc(-c3cc[nH]n3)ccc2c2cn(CCc3c[nH]cn3)nc12 [Example 175] |  |  |  | > 100 µM | > 100 µM | 0.29 µM
CC(C)(Cn1cc2c(N)nc3cc(-c4ccn[nH]4)ccc3c2n1)C(=O)NCc1ccccn1 [Example 611] | > 100 µM | > 100 µM | 9.94 µM |  |  | 
CC(C)(CO)NC(=O)C(C)(C)n1cc2c(N)nc3cc(-c4cc[nH]n4)ccc3c2n1 [Example 522] | > 100 µM | > 100 µM | 12.2 µM |  |  | 
CCN(CCn1cc2c(N)nc3cc(-c4ccn[nH]4)ccc3c2n1)C(C)=O [Example 272] |  |  |  | > 100 µM | > 100 µM | 5.13 µM
Cc1nc(C(=O)NCCn2cc3c(n2)c(N)nc2cc(-c4cc[nH]n4)ccc23)ccc1C(F)(F)F [Example 56] |  |  |  | 20 to 100 µM | 1 to 20 µM | 0.31 µM
CC(C)(Cn1cc2c(N)nc3cc(-c4ccn[nH]4)ccc3c2n1)C(N)=O [Example 604] | > 100 µM | > 100 µM | 0.85 µM |  |  | 
N#CC[C@H](O)Cn1cc2c(N)nc3cc(-c4cc[nH]n4)ccc3c2n1 [Example 380] |  |  |  | > 100 µM | > 100 µM | 0.77 µM
